Where “and” joins values, the source holds several entries; their conditions need not be identical. Equal values may be shown once. Where a name gives a salt, the structure may show the parent alone. Read-outs that look alike come from different tables or passages of the source.
Experiments:
[1] = target: S. pneumoniae recombinant NanA 9400_LC (Streptococcus pneumoniae, UniProt P62575); assay: biochemical; set-up: species or system Streptococcus pneumoniae CJ9400
[2] = target: S. pneumoniae recombinant NanA 20566_LC (Streptococcus pneumoniae, UniProt P62575); assay: biochemical; set-up: species or system Streptococcus pneumoniae DSM20566
Sequence of S. pneumoniae recombinant NanA 20566_LC (P62575 116-833): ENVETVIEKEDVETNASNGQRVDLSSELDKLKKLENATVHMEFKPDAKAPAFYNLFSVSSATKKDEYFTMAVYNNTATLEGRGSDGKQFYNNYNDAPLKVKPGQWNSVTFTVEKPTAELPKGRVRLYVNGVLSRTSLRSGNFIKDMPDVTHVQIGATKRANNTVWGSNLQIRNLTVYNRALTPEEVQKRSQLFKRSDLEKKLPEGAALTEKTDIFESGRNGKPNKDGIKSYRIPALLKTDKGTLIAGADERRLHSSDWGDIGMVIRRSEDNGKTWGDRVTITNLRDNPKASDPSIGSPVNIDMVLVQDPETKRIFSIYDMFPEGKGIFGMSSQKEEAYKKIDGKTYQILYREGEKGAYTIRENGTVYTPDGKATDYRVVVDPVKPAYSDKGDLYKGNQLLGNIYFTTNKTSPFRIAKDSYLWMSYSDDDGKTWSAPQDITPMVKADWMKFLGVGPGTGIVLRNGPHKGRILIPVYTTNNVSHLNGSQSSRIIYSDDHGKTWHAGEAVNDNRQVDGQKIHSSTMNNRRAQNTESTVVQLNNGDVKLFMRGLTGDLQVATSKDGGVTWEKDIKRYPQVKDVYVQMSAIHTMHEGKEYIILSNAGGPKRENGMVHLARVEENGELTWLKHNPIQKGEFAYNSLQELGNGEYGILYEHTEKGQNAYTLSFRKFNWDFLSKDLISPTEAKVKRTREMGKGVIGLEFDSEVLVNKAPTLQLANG

[3] = target: S. pneumoniae recombinant NanA 8919_LC (Streptococcus pneumoniae, UniProt P62575); assay: biochemical; format: biochemical, Streptococcus pneumoniae CF8919
Sequence of S. pneumoniae recombinant NanA 8919_LC (P62575 116-833): as above

[4] = target: S. pneumoniae recombinant NanA 20566_CC (Streptococcus pneumoniae, UniProt P62575); assay: biochemical; set-up: species or system Streptococcus pneumoniae DSM20566
Sequence of S. pneumoniae recombinant NanA 20566_CC (P62575 311-833): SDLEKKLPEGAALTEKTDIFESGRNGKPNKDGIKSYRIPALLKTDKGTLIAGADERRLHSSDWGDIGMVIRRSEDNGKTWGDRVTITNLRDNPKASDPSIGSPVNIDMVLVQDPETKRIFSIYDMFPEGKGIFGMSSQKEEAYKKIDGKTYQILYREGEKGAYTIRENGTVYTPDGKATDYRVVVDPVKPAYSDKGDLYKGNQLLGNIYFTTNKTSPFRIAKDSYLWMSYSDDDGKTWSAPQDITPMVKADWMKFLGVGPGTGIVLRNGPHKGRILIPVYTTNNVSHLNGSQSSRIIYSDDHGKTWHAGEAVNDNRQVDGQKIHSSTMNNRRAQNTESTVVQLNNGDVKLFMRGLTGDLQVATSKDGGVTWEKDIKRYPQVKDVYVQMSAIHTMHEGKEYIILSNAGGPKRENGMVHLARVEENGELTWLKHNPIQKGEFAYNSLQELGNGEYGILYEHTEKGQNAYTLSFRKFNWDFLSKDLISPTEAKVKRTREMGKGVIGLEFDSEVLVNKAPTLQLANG

[5] = target: Influenza virus A/WSN/33 NA-wt (whole virus) (Influenza A virus, UniProt P03470); format: biochemical, influenza A virus A/WSN/1933 (H1N1); settings: for Km: Km for MUNANA, kinetics with 1
Sequence of Influenza virus A/WSN/33 NA-wt (whole virus) (P03470 whole entry, looked up): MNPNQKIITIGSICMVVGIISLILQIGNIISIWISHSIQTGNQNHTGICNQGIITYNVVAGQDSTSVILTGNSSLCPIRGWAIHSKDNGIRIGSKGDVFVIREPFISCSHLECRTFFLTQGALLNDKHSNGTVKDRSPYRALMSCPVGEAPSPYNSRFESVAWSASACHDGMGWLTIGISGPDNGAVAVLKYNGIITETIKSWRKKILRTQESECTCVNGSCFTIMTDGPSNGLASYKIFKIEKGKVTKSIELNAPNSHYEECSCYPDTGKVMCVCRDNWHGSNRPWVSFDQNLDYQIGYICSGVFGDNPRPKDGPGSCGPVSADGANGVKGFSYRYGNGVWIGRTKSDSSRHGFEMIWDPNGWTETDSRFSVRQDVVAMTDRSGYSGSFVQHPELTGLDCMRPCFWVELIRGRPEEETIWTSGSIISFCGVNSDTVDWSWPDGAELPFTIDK

[6] = target: S. pneumoniae recombinant NanA 9400_CC (Streptococcus pneumoniae, UniProt P62575); assay: biochemical; format: biochemical, Streptococcus pneumoniae CJ9400
Sequence of S. pneumoniae recombinant NanA 9400_CC (P62575 311-833): as the sequence (P62575 311-833) above

in vitro = settings: dog
[7] = test system: 8178/09-, WSN/33-, or HK/68-induced cytopathic effect; assay: CPE inhibition assay (viruses not separated); format: cell-based; settings: Influenza A virus, MDCK, read-out: IC50 of inhibition of the 8178/09-, WSN/33-, or HK/68-induced cytopathic effect
influenza A virus WSN/33 = assay: microbe, parasite or virus in culture; format: cell-based, influenza A virus A/WSN/1933 (H1N1); settings: Influenza A virus, WSN, MDCK, 48 h, read-out: 50% inhibitory concentration, influenza A virus WSN/33
[8] = target: T1, S. pneumoniae DSM20566 NA (Streptococcus pneumoniae, UniProt P62575); assay: HA-based NA inhibition assay, S. pneumoniae DSM20566; format: cell-based
T1 construct: host or cells: either rNanA from E. coli BL21(DE3) or total precipitated protein of S. pneumoniae DSM20566

IAV 5258/09 NA = assay: Hemagglutination (HA)-based NA inhibition assay, IAV 5258/09; format: cell-based, influenza A virus A/Jena/5258/2009 (H1N1); settings: human erythrocytes
WSN/33 = format: cell-based, influenza A virus A/WSN/1933 (H1N1)
influenza A virus HK/68 = assay: microbe, parasite or virus in culture; format: cell-based, influenza A virus A/Hong Kong/68 (H3N2); settings: Influenza A virus, MDCK, 48 h, read-out: 50% inhibitory concentration, influenza A virus HK/68
[9] = test system: Influenza virus A/Jena/8178/09; format: cell-based, influenza A virus A/Jena/8178/2009 (H1N1)
[10] = test system: S. pneumoniae DSM20566 biofilm; assay: Biofilm inhibition assay; format: cell-based, Streptococcus pneumoniae DSM20566; settings: Streptococcus pneumoniae, DSM20566; 50 μM; read-out: Inhibition of biofilm formation at the maximum tested concentration
human erythrocytes [11] = format: cell-based
Description: (§1) Viral (whole virus) and bacterial NA activity as well as their inhibition were measured by using a fluorescence (FL) assay with the substrate 2′-(4-methylumbelliferyl)-α-D-N-acetylneuraminic acid sodium salt hydrate (MUNANA, 100 μM; Sigma-Aldrich GmbH, Taufkirchen, Germany), and/or a hemagglutination (HA)-based NA inhibition assay (HA assay) with human erythrocytes (Institute of Transfusion Medicine, University Hospital Jena, Jena, Germany), both assays as published recently (Richter et al., [2015]). Recombinant NanA (rNanA) and total precipitated bacterial protein of S. pneumoniae DSM20566 were used in FL and HA assays. Interference of the compounds with the FL signal (self-fluorescence and quenching) was excluded as described previously (Richter et al., [2015]). […] Each compound was tested at least three times in both NA inhibition assays.
Supplementary Table 1. […]
eTest compounds lysed the human erythrocytes (4 h at 37°C and 12 h at 4°C).

human erythrocytes [12] = format: cell-based; remark: listed apart in the source
Description: as §1
Supplementary Table 1. Assay interference phenomena of test compounds in the HA-based […]
sample concentrations [µM] in viral HA-assay bacterial HA-assay […]
hem- prevention of erythrocyte hem- erythrocyte agglutinationa virus-induced lysisc agglutinationd lysise […]
cTest compounds lysed the human erythrocytes (2 h at 4°C). […]

[13] = test system: influenza A virus 8178/09; assay: microbe, parasite or virus in culture; format: cell-based, influenza A virus A/Jena/8178/2009 (H1N1); settings: Influenza A virus, MDCK, 48 h, read-out: 50% inhibitory concentration, influenza A virus 8178/09
[14] = target: IAV HK/68 NA (whole virus) (Influenza A virus, UniProt Q91MA2); assay: biochemical; set-up: species or system influenza A virus A/Hong Kong/68 (H3N2); settings: NA inhibition using FL assay IC50, IAV HK/68
Sequence of IAV HK/68 NA (whole virus) (Q91MA2 whole entry, looked up): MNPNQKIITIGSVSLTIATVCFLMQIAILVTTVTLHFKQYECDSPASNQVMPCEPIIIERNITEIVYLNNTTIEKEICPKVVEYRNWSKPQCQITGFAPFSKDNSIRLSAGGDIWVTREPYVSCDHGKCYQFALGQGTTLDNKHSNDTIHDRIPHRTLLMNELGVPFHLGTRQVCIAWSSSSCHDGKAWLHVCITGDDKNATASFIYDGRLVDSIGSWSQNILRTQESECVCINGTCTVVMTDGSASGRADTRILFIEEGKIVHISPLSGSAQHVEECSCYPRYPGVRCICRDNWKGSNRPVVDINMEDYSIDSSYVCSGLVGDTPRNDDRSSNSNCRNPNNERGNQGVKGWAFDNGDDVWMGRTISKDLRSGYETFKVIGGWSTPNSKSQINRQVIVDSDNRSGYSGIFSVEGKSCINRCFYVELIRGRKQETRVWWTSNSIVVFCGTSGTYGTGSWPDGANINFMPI

[15] = target: T2, S. pneumoniae DSM20566 NA (NanA) (Streptococcus pneumoniae, UniProt P62575); assay: FL NA inhibition assay, S. pneumoniae DSM20566; format: biochemical
T2 construct: host or cells: either rNanA from E. coli BL21(DE3) or total precipitated protein of S. pneumoniae DSM20566

S. pneumoniae DSM20566 [16] = assay: Bactericidal or bacteriostatic activity (subculture on blood agar); format: cell-based, Streptococcus pneumoniae DSM20566; settings: for cfu per agar plate: 18 h, then subculture
S. pneumoniae DSM20566 [17] = assay: Microtiter broth microdilution assay, planktonic growth; format: cell-based, Streptococcus pneumoniae DSM20566; settings: Streptococcus pneumoniae, DSM20566; 18 h, maximum 50 μM; read-out: 50% inhibitory concentration, S. pneumoniae DSM20566 planktonic growth

Sequence of S. pneumoniae recombinant NanA 9400_LC (P62575 116-833): as the sequence (P62575 116-833) above

With `CC(=O)N[C@H]1[C@H]([C@H](O)[C@H](O)CO)O[C@@](Oc2ccc3c(C)cc(=O)oc3c2)(C(=O)O)C[C@@H]1O` [MUNANA, 2′-(4-methylumbelliferyl)-α-D-N-acetylneuraminic acid sodium salt hydrate, reference compound] the Km ([1]; Km for MUNANA, kinetics with 1) was 46.2 ± 1.71 µM, the Km ([2]; Km for MUNANA, kinetics with 1) was 17.9 ± 2.12 µM and the Km ([3]; Km for MUNANA, kinetics with 1) was 18 ± 2.39 µM. For the same compound, the Km ([4]; Km for MUNANA, kinetics with 1) was 20.2 ± 4.74 µM, the Km ([5]; 20 min preincubation) was 44.2 ± 4.63 µM and the Km ([5]; without preincubation (n = 2)) was 40 ± 3.86 µM. It also gave a Km ([6]; Km for MUNANA, kinetics with 1) of 46.4 ± 3.93 µM.
In the case of `Cc1cc(N=Nc2ccc(N=Nc3c(O)c(S(=O)(=O)O)cc4cc(S(=O)(=O)O)ccc34)cc2C)ccc1N=Nc1ccc2cc(S(=O)(=O)O)cc(S(=O)(=O)O)c2c1` [Compound 1, 7-[2-[4-[2-[4-[2-(2-hydroxy-3,6-disulfo-1-naphthalenyl)diazenyl]-2-methylphenyl]diazenyl]-2-methylphenyl]diazenyl]-1,3-naphthalenedisulfonic acid], the CC50 (in vitro) is reported as > 100 µM, the IC50 [7] is reported as < 15 µM and the IC50 (influenza A virus WSN/33) is reported as 7.17 ± 0.96 µM. For the same compound, the “NA inhibition using HA assay MIC, S. p. DSM20566” value ([8]; human erythrocytes) was 7.26 ± 3.75 µM, the “NA inhibition using HA assay MIC, IAV 5258/09” value (IAV 5258/09 NA) was 10.00 ± 0.00 µM and the “Decrease of plaque formation, compound during the whole replication cycle” value (WSN/33) was “up to 100%”. The “Plaque numbers after pretreatment of MDCK cells” value (WSN/33) was “not affected”, the “Reduction of plaque number after pretreatment of the cell-free virus” value (WSN/33) was ~ 95% and the “Reduction of plaque number, compound added during virus adsorption” value (WSN/33) was 50%. For the same compound, the IC50 (influenza A virus HK/68) was 18.5 ± 9.59 µM, the “Mean reduction in plaque numbers ± SD” value [9] was 96.10 ± 3.45% and 96.46 ± 1.08% and 97.76 ± 0.65% and 94.12 ± 3.06% and the “Mean ± SD of both experiments, reduction in plaque numbers” value [9] was 95.29 ± 1.65% and 96.93 ± 1.17%. For the same compound, the Binding mechanism [1] was “Mixed”, the Ki ([1]; Ki) was 0.19 ± 0.02 µM and the Ki ([1]; Ki (fit printed in Lineweaver-Burk plot, Supplementary Figure 2D)) was 0.172 µM. The Binding mechanism [2] was “Mixed”, the “alpha (fit in Lineweaver-Burk plot, Supplementary Figure 2B)” value [2] was 12,9 and the Ki ([2]; Ki) was 0.12 ± 0.01 µM. For the same compound, the Ki ([2]; Ki (fit in Lineweaver-Burk plot, Supplementary Figure 2B)) was 0.103 µM, the inhibition at 50 µM [10] was 49% and the Binding mechanism [3] was “Mixed”. The Ki [3] was 0.11 ± 0.02 µM, the “alpha (fit printed in Lineweaver-Burk plot, Supplementary Figure 2A)” value [3] was 7,8 and the Binding mechanism [4] was “Mixed”. For the same compound, the “alpha (fit in Lineweaver-Burk plot, Supplementary Figure 2C)” value [4] was 5,5, the Ki ([4]; Ki) was 0.16 ± 0.03 µM and the Ki ([4]; Ki (fit in Lineweaver-Burk plot, Supplementary Figure 2C)) was 0.143 µM. For the same compound, the “sample concentrations provoking erythrocyte lysis, bacterial HA-assay” value (human erythrocytes [11]; human erythrocytes, 4 h at 37°C and 12 h at 4°C) was “no”, the “sample concentrations provoking erythrocyte lysis, viral HA-assay” value (human erythrocytes [12]; human erythrocytes, 2 h at 4°C) was “no” and the IC50 [13] was 20.4 ± 2.51 µM. The Binding mechanism [5] was “Mixed”, the “binding kinetics (effect of pre-incubation on Ki)” value [5] was “fast-binding inhibitor” and the IC50 [14] was 1.42 ± 0.44 µM. The IC50 ([15]; MUNANA substrate, read-out: NA inhibition using FL assay IC50, S. p. DSM20566) was 0.32 ± 0.05 µM, the Binding mechanism [6] was “Mixed” and the Ki [6] was 0.16 ± 0.01 µM. For the same compound, the “alpha (fit printed in Lineweaver-Burk plot, Supplementary Figure 2E)” value [6] was 3,7, the “Activity (bactericidal or bacteriostatic)” value (from here on “Activity”) (S. pneumoniae DSM20566 [16]; 50 µM) was “bacteriostatic” and the “cfu per agar plate” value (S. pneumoniae DSM20566 [16]; 50 µM) was > 150. For the same compound, the IC50 (S. pneumoniae DSM20566 [17]) was 28.8 ± 13.1 µM.
For `O=S(=O)(O)c1ccc2c(/N=N/c3ccc(Sc4ccc(/N=N/c5c(O)ccc6cc(S(=O)(=O)O)ccc56)cc4)cc3)c(O)ccc2c1` [Compound 2], the CC50 (in vitro) was > 100 µM, the IC50 [7] was < 15 µM and the IC50 (influenza A virus WSN/33) was 11.8 ± 3.19 µM. The “NA inhibition using HA assay MIC, S. p. DSM20566” value [8] was 10.00 ± 0.00 µM, the IC50 (influenza A virus HK/68) was 6.19 ± 4.62 µM and the inhibition at 50 µM [10] was 47%. The “sample concentrations provoking erythrocyte lysis, bacterial HA-assay” value (human erythrocytes [11]) was “no”, the “sample concentrations provoking erythrocyte lysis, viral HA-assay” value (human erythrocytes [12]) was “no” and the IC50 [13] was 9.09 ± 1.94 µM. The IC50 [14] was 83 ± 5.67 µM, the IC50 ([15]; NA inhibition using FL assay IC50, S. p. DSM20566) was 1.85 ± 0.1 µM and the “Activity” value (S. pneumoniae DSM20566 [16]; 25 µM) was “bacteriostatic”. The “cfu per agar plate” value (S. pneumoniae DSM20566 [16]; 25 µM) was > 150, the “Activity” value (S. pneumoniae DSM20566 [16]; 50 µM) was “bacteriostatic” and the “cfu per agar plate” value (S. pneumoniae DSM20566 [16]; 50 µM) was > 150. For the same compound, the IC50 (S. pneumoniae DSM20566 [17]) was 4.59 ± 2.45 µM.

Source: paper PMC5309245, “Discovery and Characterization of Diazenylaryl Sulfonic Acids as Inhibitors of Viral and Bacterial Neuraminidases” (Frontiers in Microbiology, 2017)
